Measured values taken from PubChem BioAssay (NCI).
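Growth conditions: 96-well plates. Treatment: test compound, 48 hours, 5 concentrations. Analysis: linear interpolation between bracketing concentrations; unreached endpoints set to highest concentration. Here, GI50 denotes the concentration required for 50% inhibition of growth. TGI: total growth inhibition.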

Legend:
Assay in all cases: NCI anticancer screen, dose series, 48 h
[1] = test system: NCI-H522 lung
[2] = test system: PC-3 prostate
[3] = test system: SF-539 CNS
[4] = test system: HOP-62 NSCLC
[5] = test system: SNB-75 CNS
[6] = test system: SF-268 CNS
[7] = test system: EKVX NSCLC
[8] = test system: DU-145 prostate
[9] = test system: NCI/ADR-RES ovarian
[10] = test system: K-562 leukemia
[11] = test system: SK-MEL-28 melanoma
[12] = test system: UACC-257 melanoma
[13] = test system: TK-10 renal
[14] = test system: SF-295 CNS
[15] = test system: HCC-2998 colon
[16] = test system: SK-MEL-2 melanoma
[17] = test system: NCI-H23 lung
[18] = test system: SK-MEL-5 melanoma
[19] = test system: LOX IMVI melanoma
[20] = test system: ACHN renal
[21] = test system: SNB-19 CNS
[22] = test system: HOP-92 NSCLC
[23] = test system: A498 renal
[24] = test system: RXF 393 renal
[25] = test system: SK-OV-3 ovarian
[26] = test system: M14 melanoma
[27] = test system: HT29 colon
[28] = test system: HCT-15 colon
[29] = test system: NCI-H226 lung
[30] = test system: MALME-3M melanoma
[31] = test system: BT-549 breast
[32] = test system: CAKI-1 renal
[33] = test system: OVCAR-5 ovarian
[34] = test system: T-47D breast
[35] = test system: HL-60(TB) leukemia
[36] = test system: UO-31 renal
[37] = test system: MDA-MB-435
[38] = test system: IGROV1 ovarian
[39] = test system: HS 578T breast
[40] = test system: MCF7 breast
[41] = test system: UACC-62 melanoma
[42] = test system: CCRF-CEM leukemia
[43] = test system: SW-620 colon
[44] = test system: 786-0 renal
[45] = test system: OVCAR-4 ovarian
[46] = test system: OVCAR-8 ovarian
[47] = test system: SN12C renal
[48] = test system: HCT-116 colon
[49] = test system: OVCAR-3 ovarian
[50] = test system: MDA-MB-231 breast
[51] = test system: RPMI-8226 leukemia
[52] = test system: KM12 colon
[53] = test system: U251 CNS
[54] = test system: NCI-H460 lung
[55] = test system: SR leukemia
[56] = test system: MOLT-4 leukemia
[57] = test system: COLO 205 colon
[58] = test system: A549 NSCLC

Compound O=C(CSCC(=O)N/N=C/c1cccc(C(F)(F)F)c1)N/N=C/c1cccc(C(F)(F)F)c1 has a TGI [1] greater than 100 µM, a TGI [2] greater than 100 µM and a TGI [3] greater than 100 µM. For the same compound, the TGI [4] was greater than 100 µM, the TGI [5] was greater than 100 µM and the TGI [6] was greater than 100 µM. It also gave a TGI [7] greater than 100 µM, a TGI [8] greater than 100 µM and a TGI [9] greater than 100 µM. The TGI [10] was greater than 100 µM, the TGI [11] was greater than 100 µM and the TGI [12] was greater than 100 µM. For the same compound, the TGI [13] was greater than 100 µM, the TGI [14] was greater than 100 µM and the TGI [15] was greater than 100 µM. The TGI [16] was greater than 100 µM, the TGI [17] was greater than 100 µM and the TGI [18] was greater than 100 µM. The TGI [19] was greater than 100 µM, the TGI [20] was greater than 100 µM and the TGI [21] was greater than 100 µM. The TGI [22] was greater than 100 µM, the TGI [23] was greater than 100 µM and the TGI [24] was greater than 100 µM. For the same compound, the TGI [25] was greater than 100 µM, the TGI [26] was greater than 100 µM and the TGI [27] was greater than 100 µM. For the same compound, the TGI [28] was greater than 100 µM, the TGI [29] was greater than 100 µM and the TGI [30] was greater than 100 µM. It also gave a TGI [31] greater than 100 µM, a TGI [32] greater than 100 µM and a TGI [33] greater than 100 µM. For the same compound, the TGI [34] was greater than 100 µM, the TGI [35] was greater than 100 µM and the TGI [36] was greater than 100 µM. It also gave a TGI [37] greater than 100 µM, a TGI [38] greater than 100 µM and a TGI [39] greater than 100 µM. For the same compound, the TGI [40] was greater than 100 µM and the TGI [41] was greater than 100 µM.
With C=C1C(=O)O[C@H]2[C@H]1CC/C(COC(=O)NCc1[nH]nc3ccccc13)=C\CC[C@@]1(C)O[C@@H]21 the GI50 [1] was 1.21 µM, the TGI [1] was 2.65 µM and the GI50 [2] was 1.67 µM. It also gave a TGI [2] of 5.79 µM, a GI50 [42] of 0.337 µM and a TGI [42] of 2.51 µM. It also gave a GI50 [3] of 1.82 µM, a TGI [3] of 4.72 µM and a GI50 [43] of 0.596 µM. It also gave a TGI [43] of 2.28 µM, a GI50 [4] of 9.72 µM and a TGI [4] of 23.4 µM. It also gave a GI50 [5] of 5.06 µM, a TGI [5] of 21.1 µM and a GI50 [44] of 1.72 µM. It also gave a TGI [44] of 3.63 µM, a GI50 [45] of 4.06 µM and a TGI [45] of 17.5 µM. The GI50 [6] was 5.52 µM, the TGI [6] was 20 µM and the GI50 [46] was 2.67 µM. For the same compound, the TGI [46] was 12.3 µM, the GI50 [7] was 3.1 µM and the TGI [7] was 13.4 µM. The GI50 [47] was 1.68 µM, the TGI [47] was 4.64 µM and the GI50 [8] was 1.24 µM. The TGI [8] was 3.03 µM, the GI50 [48] was 0.839 µM and the TGI [48] was 2.53 µM. It also gave a GI50 [9] of 6.22 µM, a TGI [9] of 22.5 µM and a GI50 [49] of 1.06 µM. The TGI [49] was 2.38 µM, the GI50 [10] was 0.473 µM and the TGI [10] was 17.5 µM. For the same compound, the GI50 [11] was 1.69 µM, the TGI [11] was 3.7 µM and the GI50 [12] was 2.13 µM. For the same compound, the TGI [12] was 5.01 µM, the GI50 [13] was 1.82 µM and the TGI [13] was 3.49 µM. The GI50 [14] was 7.24 µM, the TGI [14] was 21.8 µM and the GI50 [15] was 2.78 µM. The TGI [15] was 8.97 µM, the GI50 [16] was 4.11 µM and the TGI [16] was 15.5 µM. It also gave a GI50 [17] of 2.19 µM, a TGI [17] of 7.24 µM and a GI50 [50] of 1.64 µM. For the same compound, the TGI [50] was 3.34 µM, the GI50 [51] was 0.437 µM and the TGI [51] was 2.98 µM. For the same compound, the GI50 [18] was 2.73 µM, the TGI [18] was 10.5 µM and the GI50 [19] was 1.05 µM. It also gave a TGI [19] of 2.43 µM, a GI50 [52] of 4.25 µM and a TGI [52] of 18.1 µM. The GI50 [20] was 1.11 µM, the TGI [20] was 2.63 µM and the GI50 [21] was 5.31 µM. For the same compound, the TGI [21] was 19.6 µM, the GI50 [22] was 2.03 µM and the TGI [22] was 4.11 µM. For the same compound, the GI50 [53] was 3.16 µM, the TGI [53] was 13.7 µM and the GI50 [23] was 12.6 µM. It also gave a TGI [23] of 26.3 µM, a GI50 [24] of 0.719 µM and a TGI [24] of 2.23 µM. It also gave a GI50 [54] of 3.9 µM, a TGI [54] of 15.5 µM and a GI50 [25] of 11.8 µM. For the same compound, the TGI [25] was 24.4 µM, the GI50 [55] was 0.27 µM and the TGI [55] was 2.89 µM. For the same compound, the GI50 [26] was 2.03 µM, the TGI [26] was 5.49 µM and the GI50 [27] was 1.18 µM. For the same compound, the TGI [27] was 2.69 µM, the GI50 [28] was 1.07 µM and the TGI [28] was 2.64 µM. The GI50 [29] was 16.3 µM, the TGI [29] was 33.7 µM and the GI50 [30] was 2.06 µM. It also gave a TGI [30] of 4.24 µM, a GI50 [56] of 1.71 µM and a TGI [56] of 5.97 µM. It also gave a GI50 [31] of 2.86 µM, a TGI [31] of 8.93 µM and a GI50 [32] of 1.37 µM. For the same compound, the TGI [32] was 3.91 µM, the GI50 [33] was 2.59 µM and the TGI [33] was 6.14 µM. For the same compound, the GI50 [34] was 1.74 µM, the TGI [34] was 5.43 µM and the GI50 [35] was 0.458 µM. For the same compound, the TGI [35] was 2.73 µM, the GI50 [36] was 1.51 µM and the TGI [36] was 2.95 µM. The GI50 [37] was 1.64 µM, the TGI [37] was 4.42 µM and the GI50 [38] was 2.24 µM. The TGI [38] was 9.26 µM, the GI50 [57] was 1.27 µM and the TGI [57] was 2.93 µM. For the same compound, the GI50 [39] was 4.35 µM, the TGI [39] was 27.1 µM and the GI50 [41] was 1.56 µM. The TGI [41] was 3.67 µM, the GI50 [58] was 8.61 µM and the TGI [58] was 25.7 µM.
